Measured values from patent US5434133A, “CNP analog peptides and their use” (Suntory Limited, priority 1991, dated 1995).
Entries after “also recorded” stand apart in the source; their conditions may differ. Where a SMILES comes first, the peptide text is derived from it. Bridges are numbered along the chain shown (N, C = ends). Where no end group is shown, it is not given here.

What was measured:
[1] = test system: cultured vascular smooth muscle cells (VSMC) derived from the aortas of rats; details: Furuya et al. 1990; cited from earlier work
[2] = test system: cultured vascular smooth muscle cells (VSMC) derived from the aortas of rats; test: Cell growth suppressing activity: [3H] thymidine uptake (DNA synthesis inhibition) in VSMC; type: cell-based, rat; details: for % Inhibition of 3H-thymidine uptake: 0.1 μm of each peptide, BSMC line stimulated with PDGF (20 ng/ml)
Description: 1-2: Measurement of Cell Growth Suppressing Activity
Cell growth suppressing activity was evaluated in accordance with the method of Kariya et al. (Atherosclerosis, 80, 143-147, 1990) by measuring the uptake of [^3 H] thymidine into cells as an indicator of percent DNA synthesis inhibition using the above-identified VSMC. Cells tuned to a stationary phase were incubated at 37° C. for 14 h with each sample added in the presence of 1% serum or 20 ng/ml of PDGF (platelet derived growth factor). Then, following the addition of 37 kBq/ml of [^3 H] thymidine, the incubation was continued for another 4 h and the radioactivity of [^3 H] thymidine incorporated into the cells was measured. The values of measurement were such that the uptake of [^3 H] thymidine for the case where only 1% serum or PDGF was added in the absence of peptide was taken as 100%, with the percent suppression due to the peptide addition being accordingly calculated.

[3] = test system: cultured vascular smooth muscle cells (VSMC) derived from the aortas of rats; test: cGMP producing activity in cultured VSMC (cGMP radioimmunoassay); type: cell-based, rat; details: for cGMP producing activity (in words): rat VSMC, comparison with CNP-22 or α-hANP; for cGMP producing activity (% increase for 1 μm): specific activity compared to 1 μm α-hANP (2000 fmol/400000 cells) = 100, peptide at 1 μm
Description: 1-1: Measurement of CGMP Producing Activity
The above-mentioned activity of compounds synthesized according to the present invention was measured by the methods of Hirata et al. (Biochem. Biophys. Res. Commun., 128, 538, 1985) and Scarborough et al. (J. Biol. Chem., 261, 12960, 1986). The cells used were cultured vascular smooth muscle cells (hereunder abbreviated as VSMC) derived from the aortas of rats. From 10^-9 to 10^-6 M of α-hANP or a 20 peptide of interest was incubated together with VSMC and the amount cGMP produced was measured by cGMP radioimmunoassay. Percent maximum reactivity for each peptide, with the value of maximum reactivity for α-hANP being taken as 100%, was used as an indicator of activity.

Molecule	increase of intracellular cGMP level in VSMC compared with ANP or BNP [1]	intensity of DNA synthesis / cell growth suppressing action relative to α-hANP ([2]; rat VSMC, compared with α-hANP) [times]	cGMP producing activity (in words) [3]	cGMP producing activity (% increase for 1 μm) [3] [%]	% Inhibition of 3H-thymidine uptake [2] [%]
CNP: C-type natriuretic peptide, named generically in the text (GLSKGCFGLKLDRIGSMSGLGC; disulfide 6-22 (inferred); ends not checked; UniProt P23582 105-126, looked up) [reference compound]	several times as much	10			
CC[C@H](C)[C@@H]1NC(=O)[C@H](CCCNC(=N)N)NC(=O)[C@H](CC(=O)O)NC(=O)[C@H](CCSC)NC(=O)[C@H](CCCNC(=N)N)NC(=O)CNC(=O)CNC(=O)[C@H](Cc2ccccc2)NC(=O)[C@@H](NC(=O)CNC(=O)[C@H](CCCCN)NC(=O)[C@H](CO)NC(=O)[C@H](CC(C)C)NC(=O)CN)CSSC[C@@H](C(=O)O)NC(=O)CNC(=O)[C@H](CC(C)C)NC(=O)CNC(=O)[C@H](CO)NC(=O)[C@H](CCSC)NC(=O)[C@H](CO)NC(=O)CNC1=O [Compound 14] (H-GLSKGCFGGRMDRIGSMSGLGC-OH; disulfide 6-22)			marked drop in activity	23	17
CC[C@H](C)[C@@H]1NC(=O)[C@H](CCCNC(=N)N)NC(=O)[C@H](CC(=O)O)NC(=O)[C@H](CC(C)C)NC(=O)[C@H](CCCCN)NC(=O)CNC(=O)CNC(=O)[C@H](Cc2ccccc2)NC(=O)[C@@H](NC(=O)CNC(=O)[C@H](CCCCN)NC(=O)[C@H](CO)NC(=O)[C@H](CC(C)C)NC(=O)CN)CSSC[C@@H](C(=O)O)NC(=O)CNC(=O)[C@H](CC(C)C)NC(=O)CNC(=O)[C@H](CO)NC(=O)[C@H](CCSC)NC(=O)[C@H](CO)NC(=O)CNC1=O [Compound 6] (H-GLSKGCFGGKLDRIGSMSGLGC-OH; disulfide 6-22)			lower activity than CNP-22 (but higher than that of α-hANP); also recorded: lower in cGMP producing activity than the other one- and two-residue substituted derivatives	344	49
CC[C@H](C)[C@@H]1NC(=O)[C@H](CCCNC(=N)N)NC(=O)[C@H](CC(=O)O)NC(=O)[C@H](CCSC)NC(=O)[C@H](CCCNC(=N)N)NC(=O)CNC(=O)CNC(=O)[C@H](Cc2ccccc2)NC(=O)[C@@H](NC(=O)CNC(=O)[C@H](CCCCN)NC(=O)[C@H](CO)NC(=O)[C@H](CC(C)C)NC(=O)CN)CSSC[C@@H](C(=O)N[C@@H](CC(N)=O)C(=O)N[C@@H](CO)C(=O)N[C@@H](Cc2ccccc2)C(=O)N[C@@H](CCCNC(=N)N)C(=O)N[C@@H](Cc2ccc(O)cc2)C(=O)O)NC(=O)[C@H](CCC(=O)O)NC(=O)[C@H](CC(C)C)NC(=O)[C@H](CCC(=O)O)NC(=O)[C@H](CO)NC(=O)[C@H](CCC(N)=O)NC(=O)[C@H](C)NC(=O)CNC1=O [Compound 2, H-Gly-Leu-Ser-Lys-Gly-Cys-Phe-Gly-Gly-Arg-Met-Asp-Arg-Ile-Gly-Ala-Gln-Ser- Glu-Leu-Glu-Cys-Asn-Ser-Phe-Arg-Tyr-OH] (H-GLSKGCFGGRMDRIGAQSELECNSFRY-OH; disulfide 6-22)			only a weak cGMP producing activity at a level comparable to α-hANP	147	38
